Results as given in PubChem BioAssay AID256 (DTP/NCI, 2004).
“And” between values parts separate entries of the source, which are not always exact repeats. Identical values can stand only once. Inconclusive results and toxic doses are left out.

System: CD2F1 mice, L1210 leukemia ip, survival T/C
Assay: NCI In Vivo Anticancer Drug Screen. Data for tumor model L1210 Leukemia (intraperitoneal) in CD2F1 (CDF1) mice
Settings: higher = longer survival
Method in brief: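 In this screen, transplantable tumors were grown in mice given either the compound or its vehicle. Results were expressed as the treated measurement relative to the control measurement.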

[1] = endpoint: mean survival time, dose: 100.0 mg/kg/injection, schedule: Q04DX003 (ip), vehicle: saline with Tween-80
[2] = endpoint: mean survival time, dose: 200.0 mg/kg/injection, schedule: Q04DX003 (ip), vehicle: saline with Tween-80
[3] = endpoint: mean survival time, dose: 400.0 mg/kg/injection, schedule: Q04DX003 (ip), vehicle: saline with Tween-80
[4] = endpoint: mean survival time, dose: 25.0 mg/kg/injection, schedule: Q01DX009 (ip), vehicle: saline with Tween-80
[5] = endpoint: mean survival time, dose: 50.0 mg/kg/injection, schedule: Q01DX009 (ip), vehicle: saline with Tween-80
[6] = endpoint: mean survival time, dose: 100.0 mg/kg/injection, schedule: Q01DX009 (ip), vehicle: saline with Tween-80
[7] = endpoint: mean survival time, dose: 200.0 mg/kg/injection, schedule: Q01DX009 (ip), vehicle: saline with Tween-80
[8] = endpoint: mean survival time, dose: 100.0 mg/kg/injection, schedule: Q04DX003 (ip), vehicle: other
[9] = endpoint: mean survival time, dose: 100.0 mg/kg/injection, schedule: Q01DX001 (ip), vehicle: saline with Tween-80
[10] = endpoint: mean survival time, dose: 200.0 mg/kg/injection, schedule: Q01DX001 (ip), vehicle: saline with Tween-80
[11] = endpoint: mean survival time, dose: 400.0 mg/kg/injection, schedule: Q01DX001 (ip), vehicle: saline with Tween-80
[12] = endpoint: mean survival time, dose: 400.0 mg/kg/injection, schedule: Q01DX009 (ip), vehicle: saline with Tween-80

CCCC[P+](CO)(CCCC)CCCC
T/C (endpoint: mean survival time, dose: 7.5 mg/kg/injection, schedule: Q04DX003 (ip), vehicle: saline): 103 % of control | T/C (endpoint: mean survival time, dose: 15.0 mg/kg/injection, schedule: Q04DX003 (ip), vehicle: saline): 98 % of control | T/C (endpoint: mean survival time, dose: 30.0 mg/kg/injection, schedule: Q04DX003 (ip), vehicle: saline): 101 % of control

O=C(Nc1ccc(C(=O)O)cc1)OCc1ccccc1
T/C [1]: 100 % of control | T/C [2]: 101 % of control | T/C [3]: 91 % of control

CN1CC(NC(=O)N(CCCl)N=O)CC2c3cccc4[nH]cc(c34)CC21 (stereo not given)
T/C (endpoint: mean survival time, dose: 12.5 mg/kg/injection, schedule: Q01DX001 (ip), vehicle: other): 119 % of control | T/C (endpoint: mean survival time, dose: 50.0 mg/kg/injection, schedule: Q01DX001 (ip), vehicle: other): 154 % of control | T/C (endpoint: mean survival time, dose: 100.0 mg/kg/injection, schedule: Q01DX001 (ip), vehicle: other): 248 % of control | T/C (endpoint: mean survival time, dose: 200.0 mg/kg/injection, schedule: Q01DX001 (ip), vehicle: other): 390 % of control | T/C (endpoint: mean survival time, dose: 400.0 mg/kg/injection, schedule: Q01DX001 (ip), vehicle: other): 98 % of control

O=C(O)CCC(O)CC(=O)OCc1ccccc1 (stereo not given)
T/C (endpoint: mean survival time, dose: 100.0 mg/kg/injection, schedule: Q04DX002 (ip), vehicle: saline): 107 % of control | T/C (endpoint: mean survival time, dose: 200.0 mg/kg/injection, schedule: Q04DX002 (ip), vehicle: saline): 107 % of control | T/C (endpoint: mean survival time, dose: 400.0 mg/kg/injection, schedule: Q04DX002 (ip), vehicle: saline): 96 % of control

CCCCC(NC(=O)CN)C(=O)O (stereo not given)
T/C (endpoint: mean survival time, dose: 75.0 mg/kg/injection, schedule: Q04DX002 (ip), vehicle: saline with Tween-80): 111 % of control | T/C (endpoint: mean survival time, dose: 150.0 mg/kg/injection, schedule: Q04DX002 (ip), vehicle: saline with Tween-80): 91 % of control | T/C (endpoint: mean survival time, dose: 300.0 mg/kg/injection, schedule: Q04DX002 (ip), vehicle: saline with Tween-80): 106 % of control

C#CC(C)(C)OCC(CCl)OC(N)=O (stereo not given)
T/C [4]: 97 % of control | T/C [5]: 97 % of control | T/C [6]: 100 % of control | T/C [7]: 102 % of control

O=C1C=CC(=O)N1c1ccc(Br)cc1 (tested in a mixture with another compound)
T/C (endpoint: mean survival time, dose: 100.0 mg/kg/injection, schedule: Q01DX009 (ip), vehicle: acetone): 98 % of control | T/C (endpoint: mean survival time, dose: 200.0 mg/kg/injection, schedule: Q01DX009 (ip), vehicle: acetone): 95 % of control

COc1cc(CCl)ccc1OCc1ccccc1
T/C [8]: 98 % of control | T/C (endpoint: mean survival time, dose: 200.0 mg/kg/injection, schedule: Q04DX003 (ip), vehicle: other): 98 % of control | T/C (endpoint: mean survival time, dose: 400.0 mg/kg/injection, schedule: Q04DX003 (ip), vehicle: other): 109 % of control

O=C(O)CCc1nc2ccccc2c(=O)n1Cc1ccccc1
T/C (endpoint: mean survival time, dose: 100.0 mg/kg/injection, schedule: Q04DX003 (ip), vehicle: Klucel (hydroxypropylcellulose) (HPC)): 106 % of control | T/C (endpoint: mean survival time, dose: 200.0 mg/kg/injection, schedule: Q04DX003 (ip), vehicle: Klucel (hydroxypropylcellulose) (HPC)): 98 % of control | T/C (endpoint: mean survival time, dose: 400.0 mg/kg/injection, schedule: Q04DX003 (ip), vehicle: Klucel (hydroxypropylcellulose) (HPC)): 95 % of control

C[C@]12CC[C@H](OC(=O)Cc3ccc(N(CCCl)CCCl)cc3)CC1=CC[C@@H]1[C@@H]2CC[C@]2(C)C(=O)CC[C@@H]12
T/C [9]: 92 % of control | T/C [6]: 100 % of control | T/C [10]: 90 % of control | T/C [7]: 107 % of control | T/C [11]: 96 % of control | T/C [12]: 111 % of control

CC(=O)Nc1cc(S(=O)(=O)O)cc(N)c1O
T/C (endpoint: mean survival time, dose: 100.0 mg/kg/injection, schedule: Q01DX001 (ip), vehicle: Klucel (hydroxypropylcellulose) (HPC)): 114 % of control | T/C (endpoint: mean survival time, dose: 200.0 mg/kg/injection, schedule: Q01DX001 (ip), vehicle: Klucel (hydroxypropylcellulose) (HPC)): 103 % of control | T/C (endpoint: mean survival time, dose: 400.0 mg/kg/injection, schedule: Q01DX001 (ip), vehicle: Klucel (hydroxypropylcellulose) (HPC)): 106 % of control

NC(CSC1c2ccccc2-c2ccccc21)C(=O)O (stereo not given)
T/C (endpoint: mean survival time, dose: 25.0 mg/kg/injection, schedule: Q01DX009 (ip), vehicle: saline): 102 % of control | T/C (endpoint: mean survival time, dose: 50.0 mg/kg/injection, schedule: Q01DX009 (ip), vehicle: saline): 103 % of control | T/C (endpoint: mean survival time, dose: 100.0 mg/kg/injection, schedule: Q01DX009 (ip), vehicle: saline): 102 % of control | T/C (endpoint: mean survival time, dose: 200.0 mg/kg/injection, schedule: Q01DX009 (ip), vehicle: saline): 96 % of control | T/C (endpoint: mean survival time, dose: 400.0 mg/kg/injection, schedule: Q01DX009 (ip), vehicle: saline): 103 % of control

O=c1[nH]cnc2c1nc(NCc1ccccc1)n2C1OC(CO)C(O)C1O (stereo not given)
T/C (endpoint: mean survival time, dose: 12.5 mg/kg/injection, schedule: Q01DX005 (ip), vehicle: distilled water + Tween-80): 98 % of control | T/C (endpoint: mean survival time, dose: 25.0 mg/kg/injection, schedule: Q01DX005 (ip), vehicle: distilled water + Tween-80): 96 % of control | T/C (endpoint: mean survival time, dose: 50.0 mg/kg/injection, schedule: Q01DX005 (ip), vehicle: distilled water + Tween-80): 96 % of control | T/C (endpoint: mean survival time, dose: 100.0 mg/kg/injection, schedule: Q01DX005 (ip), vehicle: distilled water + Tween-80): 101 % of control | T/C (endpoint: mean survival time, dose: 150.0 mg/kg/injection, schedule: Q01DX005 (ip), vehicle: distilled water + Tween-80): 98 % of control

O=C(O)CCc1ccccc1-c1ccccc1
T/C (endpoint: mean survival time, dose: 50.0 mg/kg/injection, schedule: Q04DX002 (ip), vehicle: saline with Tween-80): 105 % of control | T/C (endpoint: mean survival time, dose: 100.0 mg/kg/injection, schedule: Q04DX002 (ip), vehicle: saline with Tween-80): 96 % of control and 97 % of control | T/C (endpoint: mean survival time, dose: 200.0 mg/kg/injection, schedule: Q04DX002 (ip), vehicle: saline with Tween-80): 103 % of control and 105 % of control | T/C (endpoint: mean survival time, dose: 400.0 mg/kg/injection, schedule: Q04DX002 (ip), vehicle: saline with Tween-80): 100 % of control

CC(=O)Nc1ccc(Br)cn1
T/C [9]: 97 % of control | T/C [10]: 105 % of control | T/C [11]: 102 % of control

COC1CC(N)C(O)C(C)O1 (stereo not given)
T/C (endpoint: mean survival time, dose: 12.5 mg/kg/injection, schedule: Q01DX009 (ip), vehicle: water): 103 % of control | T/C (endpoint: mean survival time, dose: 25.0 mg/kg/injection, schedule: Q01DX009 (ip), vehicle: water): 101 % of control | T/C (endpoint: mean survival time, dose: 50.0 mg/kg/injection, schedule: Q01DX009 (ip), vehicle: water): 107 % of control | T/C (endpoint: mean survival time, dose: 100.0 mg/kg/injection, schedule: Q01DX009 (ip), vehicle: water): 105 % of control | T/C (endpoint: mean survival time, dose: 200.0 mg/kg/injection, schedule: Q01DX009 (ip), vehicle: water): 92 % of control

O=C(O)c1ccccc1C(=O)CC(O)(C(F)(F)F)C(F)(F)F
T/C [1]: 101 % of control | T/C [2]: 97 % of control | T/C [3]: 102 % of control

Nc1cc(S(=O)(=O)c2ccc(/C=C/c3ccccc3)c(N)c2)ccc1/C=C/c1ccccc1
T/C [6]: 93 % of control | T/C [7]: 94 % of control and 88 % of control | T/C [12]: 91 % of control

O=c1[nH]cnc2n[nH]c(Br)c12
T/C (endpoint: median survival time, dose: 50.0 mg/kg/injection, schedule: Q01DX005 (ip), vehicle: saline with Tween-80): 107 % of control | T/C (endpoint: median survival time, dose: 100.0 mg/kg/injection, schedule: Q01DX005 (ip), vehicle: saline with Tween-80): 111 % of control | T/C (endpoint: median survival time, dose: 200.0 mg/kg/injection, schedule: Q01DX005 (ip), vehicle: saline with Tween-80): 119 % of control

CCN(CC)CCN1CC2CC=CCC2C1 (stereo not given)
T/C [6]: 96 % of control

CCCCCCCCCCCCCCCC(=O)Oc1ccc(/C(CC)=C(/CC)c2ccc(OC(=O)CCCCCCCCCCCCCCC)cc2)cc1
T/C [6]: 91 % of control

NNC(=O)COc1ccc(Cl)cc1Cl
T/C [4]: 102 % of control | T/C [5]: 105 % of control | T/C [6]: 104 % of control

N#CC(C(=O)N1CCCC1)=C(S)S
T/C [6]: 102 % of control | T/C [1]: 100 % of control | T/C [7]: 101 % of control | T/C [2]: 100 % of control | T/C [12]: 102 % of control | T/C [3]: 103 % of control

CC(=O)CC(=O)c1ccc(C(=O)CC(C)=O)cc1.[Fe]
T/C [1]: 96 % of control | T/C [2]: 89 % of control | T/C [3]: 104 % of control

COC(=O)CCC#N
T/C (endpoint: mean survival time, dose: 100.0 mg/kg/injection, schedule: Q04DX003 (ip), vehicle: saline): 96 % of control | T/C (endpoint: mean survival time, dose: 200.0 mg/kg/injection, schedule: Q04DX003 (ip), vehicle: saline): 91 % of control | T/C (endpoint: mean survival time, dose: 400.0 mg/kg/injection, schedule: Q04DX003 (ip), vehicle: saline): 97 % of control

COC(=O)C1C2CCc3cc(OC)ccc3C2CC(=O)C1(C)C(=O)OC (stereo not given)
T/C (endpoint: mean survival time, dose: 100.0 mg/kg/injection, schedule: Q04DX003 (sc), vehicle: steriod suspending solution): 103 % of control | T/C (endpoint: mean survival time, dose: 200.0 mg/kg/injection, schedule: Q04DX003 (sc), vehicle: steriod suspending solution): 95 % of control | T/C (endpoint: mean survival time, dose: 400.0 mg/kg/injection, schedule: Q04DX003 (sc), vehicle: steriod suspending solution): 104 % of control

Oc1ccc(Cl)cc1Sc1cc(Cl)ccc1O
T/C [8]: 108 % of control
